Source: patent US8492414B2, “Antibacterial agents” (Biota Scientific Management Pty Ltd, priority 2007, dated 2013)
Values after ≈ are worked out from the molar mass of the structure shown.

Tested on: Staphylococcus aureus ATCC29213
Assay: Minimum Inhibitory Concentration (MIC) testing, broth microdilution or agar dilution
Type: cell-based
Details: MIC scored A/B/C, read-out: Staphylococcus aureus MICs, Activity
Method: Minimum Inhibitory Concentration (MIC) Testing Compounds of this invention were tested for antimicrobial activity by susceptibility testing in liquid or on solid media. […] Activities were scored as ‘A’ if the MIC was ≦[…] micrograms/ml, ‘B’ if the MIC was 0.25 to 4 micrograms/ml and ‘C’ if the MIC was greater than 4 micrograms/ml.

MIC	Compound
≤ 1.12 µg/mL	NC(=O)c1c(F)ccc(OCc2nc(-c3ccc(Cl)cc3)ns2)c1F [Example 1, 3-[3-(4-Chlorophenyl)-[1,2,4]thiadiazol-5-ylmethoxy]-2,6-difluorobenzamide]
≤ 1.12 µg/mL	COc1ccc(-c2nsc(COc3ccc(F)c(C(N)=O)c3F)n2)cc1 [Example 2, 2,6-Difluoro-3-[3-(4-methoxyphenyl)-[1,2,4]thiadiazol-5-ylmethoxy]-benzamide]
0.25 to 4 µg/mL (≈ 0.688 to 11 µM)	NC(=O)c1c(F)ccc(OCc2nc(-c3ccc(O)cc3)ns2)c1F [Example 4, 2,6-Difluoro-3-[3-(4-hydroxyphenyl)-[1,2,4]thiadiazol-5-ylmethoxy]-benzamide]

Continued, compound first:

Compound	MIC
NC(=O)c1c(F)ccc(OCc2nc(-c3ccc(OC(F)(F)F)cc3)ns2)c1F [Example 3, 2,6-Difluoro-3-[3-(4-trifluoromethoxyphenyl)-[1,2,4]thiadiazol-5-ylmethoxy]-benzamide]	≤ 1.12 µg/mL
COc1cc(Cl)ccc1-c1nsc(COc2ccc(F)c(C(N)=O)c2F)n1 [Example 5, 3-((3-(4-chloro-2-methoxyphenyl)-1,2,4-thiadiazol-5-yl)methoxy)-2,6-difluorobenzamide]	0.25 to 4 µg/mL (≈ 0.607 to 9.71 µM)
NC(=O)c1c(F)ccc(OCc2nc(-c3ccc(Cl)cc3OCc3ccccc3)ns2)c1F [Example 6, 3-((3-(2-(Benzyloxy)-4-chlorophenyl)-1,2,4-thiadiazol-5-yl)methoxy)-2,6-difluorobenzamide]	0.25 to 4 µg/mL (≈ 0.512 to 8.2 µM)
NC(=O)c1c(F)ccc(OCc2nc(-c3ccc(Cl)cc3O)ns2)c1F [Example 7, 3-((3-(4-chloro-2-hydroxyphenyl)-1,2,4-thiadiazol-5-yl)methoxy)-2,6-difluorobenzamide]	≤ 1.12 µg/mL
